How the values were obtained:
Assay in all cases: Test B pre-/postemergence plant response
Type in all cases: in vivo
[1] = tested on: Italian ryegrass (Lolium multiflorum)
Procedure, shortened: (§1)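 Seeds sown in loam–sand blend were treated preemergence, and plants at 2–18 cm (1- to 4-leaf stage) in peat-based medium were treated postemergence; compounds were formulated in non-phytotoxic solvent with surfactant. After 13–15 days in greenhouse, response was visually rated against controls, 0 (no effect) to 100 (complete control).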

[2] = tested on: Surinam grass (Brachiaria decumbens)
Procedure, shortened: as §1

[3] = tested on: blackgrass (Alopecurus myosuroides)
Procedure, shortened: as §1

[4] = tested on: corn (Zea mays)
Procedure, shortened: as §1

[5] = tested on: downy bromegrass (Bromus tectorum)
Procedure, shortened: as §1

[6] = tested on: giant foxtail (Setaria faberii)
Procedure, shortened: as §1

[7] = tested on: johnsongrass (Sorghum halepense)
Procedure, shortened: as §1

[8] = tested on: kochia (Kochia scoparia)
Procedure, shortened: as §1

[9] = tested on: pigweed (Amaranthus retroflexus)
Procedure, shortened: as §1

[10] = tested on: ragweed (common ragweed, Ambrosia elatior)
Procedure, shortened: as §1

[11] = tested on: soybean (Glycine max)
Procedure, shortened: as §1

[12] = tested on: velvetleaf (Abutilon theophrasti)
Procedure, shortened: as §1

[13] = tested on: woolly cupgrass (Eriochloa villosa)
Procedure, shortened: as §1

[14] = 31 g ai/ha, postemergence, scale 0 to 100, 0 is no effect, 100 is complete control
[15] = 62 g ai/ha, postemergence, 0 is no effect, 100 is complete control, 13 to 15 days
[16] = Postemergence, 125 g ai/ha, visual rating after 13 to 15 days, scale 0 (no effect) to 100 (complete control)
[17] = Postemergence, 250 g ai/ha, scale 0 to 100 (0 no effect, 100 complete control)
[18] = Preemergence, 31 g ai/ha, scale 0 to 100 (0 no effect, 100 complete control)
[19] = Preemergence, 62 g ai/ha, scale 0 to 100 (0 no effect, 100 complete control)
[20] = Preemergence, 125 g ai/ha, scale 0 to 100, 0 no effect, 100 complete control
[21] = Preemergence, 250 g ai/ha, 0 to 100 scale

CCCn1c(-c2cccs2)ncc(C(=O)C2=C(O)CCCC2=O)c1=O [Compound 77]
80: Plant response rating, Surinam Grass [2, 17] | Plant response rating, Foxtail, Giant [6, 17] | Kochia plant response rating (0 to 100 scale) [8, 15] | Plant response rating, Ragweed [10, 16]
0: Plant response rating, Ryegrass, Italian [1, 14] | Plant response rating, Ryegrass, Italian [1, 18] | Plant response rating, Ryegrass, Italian [1, 19] | Plant response rating, Ryegrass, Italian [1, 20] | Ryegrass, Italian plant response rating [1, 21] | Plant response rating, Surinam Grass [2, 18] | Plant response rating, Blackgrass [3, 14] | Blackgrass plant response rating (0 to 100 scale) [3, 15] | Plant response rating, Blackgrass [3, 16] | Plant response rating, Blackgrass [3, 18] | Plant response rating, Blackgrass [3, 19] | Plant response rating, Blackgrass [3, 20] | Blackgrass plant response rating [3, 21] | Plant response rating, Corn [4, 14] | Plant response rating, Corn [4, 18] | Plant response rating, Corn [4, 19] | Plant response rating, Corn [4, 20] | Corn plant response rating [4, 21] | Plant response rating, Bromegrass, Downy [5, 14] | Plant response rating, Bromegrass, Downy [5, 18] | Plant response rating, Bromegrass, Downy [5, 19] | Plant response rating, Bromegrass, Downy [5, 20] | Bromegrass, Downy plant response rating [5, 21] | Plant response rating, Foxtail, Giant [6, 18] | Plant response rating, Foxtail, Giant [6, 19] | Plant response rating, Johnsongrass [7, 14] | Johnsongrass plant response rating (0 to 100 scale) [7, 15] | Plant response rating, Johnsongrass [7, 18] | Plant response rating, Johnsongrass [7, 19] | Plant response rating, Johnsongrass [7, 20] | Johnsongrass plant response rating [7, 21] | Plant response rating, Cupgrass, Woolly [13, 18] | Plant response rating, Cupgrass, Woolly [13, 19] | Plant response rating, Cupgrass, Woolly [13, 20] | Cupgrass, Woolly plant response rating [13, 21]
75: Plant response rating, Surinam Grass [2, 16] | Plant response rating, Surinam Grass [2, 20] | Plant response rating, Corn [4, 17] | Foxtail, Giant plant response rating (0 to 100 scale) [6, 15] | Plant response rating, Foxtail, Giant [6, 16] | Plant response rating, Kochia [8, 14] | Plant response rating, Ragweed [10, 14] | Ragweed plant response rating (0 to 100 scale) [10, 15] | Plant response rating, Ragweed [10, 19]
50: Plant response rating, Ragweed [10, 18] | Soybean plant response rating (0 to 100 scale) [11, 15]
25: Plant response rating, Soybean [11, 14]
10: Plant response rating, Ryegrass, Italian [1, 17] | Plant response rating, Johnsongrass [7, 16] | Plant response rating, Johnsongrass [7, 17]
95: Plant response rating, Kochia [8, 16] | Plant response rating, Kochia [8, 17] | Kochia plant response rating [8, 21] | Ragweed plant response rating [10, 21] | Plant response rating, Velvetleaf [12, 18]
90: Plant response rating, Kochia [8, 19] | Plant response rating, Kochia [8, 20] | Plant response rating, Ragweed [10, 20] | Plant response rating, Velvetleaf [12, 14]
20: Plant response rating, Surinam Grass [2, 19] | Plant response rating, Cupgrass, Woolly [13, 14] | Cupgrass, Woolly plant response rating (0 to 100 scale) [13, 15]
60: Plant response rating, Corn [4, 16]
45: Foxtail, Giant plant response rating [6, 21]
40: Plant response rating, Cupgrass, Woolly [13, 17]
5: Ryegrass, Italian plant response rating (0 to 100 scale) [1, 15] | Plant response rating, Ryegrass, Italian [1, 16] | Plant response rating, Blackgrass [3, 17] | Corn plant response rating (0 to 100 scale) [4, 15] | Bromegrass, Downy plant response rating (0 to 100 scale) [5, 15] | Plant response rating, Bromegrass, Downy [5, 16] | Plant response rating, Bromegrass, Downy [5, 17] | Plant response rating, Foxtail, Giant [6, 20]
98: Plant response rating, Pigweed [9, 14] | Pigweed plant response rating (0 to 100 scale) [9, 15] | Velvetleaf plant response rating (0 to 100 scale) [12, 15] | Plant response rating, Velvetleaf [12, 16]
65: Plant response rating, Surinam Grass [2, 14] | Surinam Grass plant response rating (0 to 100 scale) [2, 15] | Plant response rating, Foxtail, Giant [6, 14]
35: Plant response rating, Cupgrass, Woolly [13, 16]
85: Plant response rating, Kochia [8, 18] | Plant response rating, Ragweed [10, 17]
100: Surinam Grass plant response rating [2, 21] | Plant response rating, Pigweed [9, 16] | Plant response rating, Pigweed [9, 17] | Plant response rating, Pigweed [9, 18] | Plant response rating, Pigweed [9, 19] | Plant response rating, Pigweed [9, 20] | Pigweed plant response rating [9, 21] | Plant response rating, Velvetleaf [12, 17] | Plant response rating, Velvetleaf [12, 19] | Plant response rating, Velvetleaf [12, 20] | Velvetleaf plant response rating [12, 21]
70: Plant response rating, Soybean [11, 16] | Plant response rating, Soybean [11, 17]

— patent publication US8952024B2, “Herbicidal pyrimidone derivatives” (E I du Pont de Nemours and Company, priority 2009, dated 2015)
